Data published in ChEMBL document CHEMBL4739716, “Gpr139 receptor modulators” (2020).

Columns and labels:
[1] = target: T1, Probable G-protein coupled receptor 139 (Homo sapiens, UniProt Q6DWJ6); assay: Agonist activity at human GPR139 expressed in CHO-K1 cells assessed as increase in calcium flux by calcium 5 dye based FLIPR assay; type: functional, cell-based
T1 sequence (Q6DWJ6 whole entry): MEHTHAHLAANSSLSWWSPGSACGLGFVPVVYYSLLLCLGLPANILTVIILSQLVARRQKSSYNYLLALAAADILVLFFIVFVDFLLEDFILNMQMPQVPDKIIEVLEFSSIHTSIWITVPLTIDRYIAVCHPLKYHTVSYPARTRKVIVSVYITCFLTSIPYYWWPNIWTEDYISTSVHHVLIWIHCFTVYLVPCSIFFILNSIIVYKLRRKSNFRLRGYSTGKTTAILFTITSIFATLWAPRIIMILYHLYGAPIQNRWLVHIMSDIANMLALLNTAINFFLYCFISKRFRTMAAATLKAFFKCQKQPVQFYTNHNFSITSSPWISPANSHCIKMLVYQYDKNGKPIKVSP

[2] = target: T2, Probable G-protein coupled receptor 139 (Homo sapiens) (UniProt Q6DWJ6); assay: Agonist activity at human GPR139 expressed in CHO-K1 cells assessed as increase in calcium flux by calcium 5 dye based FLIPR assay relative to JNJ63533054; type: functional, cell-based; conditions: filed as agonist
T2 sequence (whole entry): T1 sequence (Q6DWJ6 whole entry)

[3] = target: T3, Probable G-protein coupled receptor 139 (Rattus norvegicus, UniProt P0C0W8); assay: Agonist activity at rat GPR139 expressed in CHO-K1 cells assessed as increase in calcium flux by calcium 5 dye based FLIPR assay; type: cell-based
T3 sequence (P0C0W8 whole entry): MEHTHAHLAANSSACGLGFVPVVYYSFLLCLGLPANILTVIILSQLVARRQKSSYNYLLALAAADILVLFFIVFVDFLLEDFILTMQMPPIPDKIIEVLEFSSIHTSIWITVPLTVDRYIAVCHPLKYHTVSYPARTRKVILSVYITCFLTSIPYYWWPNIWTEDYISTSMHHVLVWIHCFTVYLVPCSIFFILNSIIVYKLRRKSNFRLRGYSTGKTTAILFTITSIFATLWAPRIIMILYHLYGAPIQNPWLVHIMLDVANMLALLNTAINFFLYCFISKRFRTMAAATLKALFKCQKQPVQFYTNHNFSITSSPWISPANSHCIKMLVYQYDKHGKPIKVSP

[4] = target: T4, Probable G-protein coupled receptor 139 (Rattus norvegicus) (UniProt P0C0W8); assay: Agonist activity at rat GPR139 expressed in CHO-K1 cells assessed as increase in calcium flux by calcium 5 dye based FLIPR assay relative to JNJ63533054; type: cell-based
T4 sequence (whole entry): T3 sequence (P0C0W8 whole entry)

| SMILES | EC50 [1] [nM] | Emax [2] [%] | EC50 [3] [nM] | Emax [4] [%] | EC50 ([1]; cho-k1) [nM] | EC50 ([3]; cho-k1) [nM] | Emax ([4]; filed as agonist) [%] |
| --- | --- | --- | --- | --- | --- | --- | --- |
| Cc1ccc([C@H](C)NC(=O)Cn2nc3c(N)cccn3c2=O)cc1 |  | > 80 |  |  | 1 | 1 | 50 |
| Cc1ccc([C@H](C)NC(=O)C(C)n2nc3ccccn3c2=O)cc1 (stereo in doubt; form 1) [listing 1 of 2 here] |  | > 80 |  |  |  |  | 50 |
| Cc1nccn2c(=O)n(CC(=O)N[C@@H](C)c3ccc(Cl)c(F)c3)nc12 | < 1 | > 80 | < 1 |  |  |  | > 80 |
| Cc1cn2c(=O)n(CC(=O)N[C@@H](C)c3ccc(OC(F)(F)F)cc3)nc2cn1 |  | > 80 | ≥ 100 | 25 | 1 |  |  |
| C[C@H](NC(=O)Cn1nc2cnccn2c1=O)c1ccc(Cl)c(F)c1 |  | > 80 |  |  | 1 | 1 | > 80 |
| C[C@H](NC(=O)Cn1nc2cccc(N3CC(O)C3)n2c1=O)c1ccc(OC(F)(F)F)cc1 | < 1 | 50 |  | 25 |  | 1 |  |
| C[C@H](NC(=O)Cn1nc2ccccn2c1=O)c1ccc(OC(F)F)cc1 |  | > 80 |  | 25 | 1 | 10 |  |
| Cc1ccc([C@H](C)NC(=O)Cn2nc3ccncn3c2=O)cc1 |  | > 80 |  |  | 1 |  |  |
| Cc1nccn2c(=O)n(CC(=O)N[C@@H](C)c3ccc(OC(F)(F)F)cc3)nc12 | < 1 | > 80 |  |  |  | 1 | > 80 |
| CNc1nccn2c(=O)n(CC(=O)N[C@@H](C)c3ccc(Cl)c(F)c3)nc12 | < 1 | > 80 | < 1 |  |  |  | > 80 |
| CC(NC(=O)Cn1nc2ccccn2c1=O)c1ccc(OC(F)F)cc1 (stereo in doubt) |  | > 80 |  |  | 10 |  |  |
| C[C@H](NC(=O)Cn1nc2c(NC3COC3)nccn2c1=O)c1ccc(Cl)c(F)c1 |  | > 80 |  |  | 1 | 1 | 50 |
| Cc1ccc([C@H](C)NC(=O)Cn2nc3ccc(Br)cn3c2=O)cc1 |  | > 80 | < 1 |  | 1 |  | 50 |
| C[C@H](NC(=O)Cn1nc2c(N3CCN(C)CC3)nccn2c1=O)c1ccc(Cl)c(F)c1 |  | 50 |  |  | 1 | 1 | > 80 |
| Cc1cc2nn(CC(=O)N[C@@H](C)c3ccc(Cl)cc3)c(=O)n2c(C)n1 | < 1 | > 80 | ≥ 100 | < 25 |  |  |  |
| C[C@H](NC(=O)Cn1nc2ccccn2c1=O)c1cncc(F)c1 | ≥ 100 | 50 |  |  |  |  |  |
| O=C(Cn1nc2ccccn2c1=O)NC(c1ccc(Cl)cc1)C1CC1 (stereo not given) |  | > 80 |  |  | 10 |  |  |
| C[C@H](NC(=O)Cn1nc2ncccn2c1=O)c1ccc(OC(F)F)c(F)c1 |  | > 80 | ≥ 100 | 25 | 10 |  |  |
| C[C@H](NC(=O)Cn1nc2cccc(N3CCN(C)CC3)n2c1=O)c1ccc(Cl)c(F)c1 |  | > 80 | ≥ 100 |  | 1 |  | > 80 |
| C[C@H](NC(=O)Cn1nc2ccccn2c1=O)c1ccc(OC(F)(F)F)cc1 |  | > 80 |  | 25 | 1 | 1 |  |
| Cc1ccc([C@H](C)NC(=O)Cn2nc3ncccn3c2=O)cc1 |  | > 80 | ≥ 100 | 25 | 10 |  |  |
| Cc1ccc([C@H](C)NC(=O)Cn2nc3cccc(Br)n3c2=O)cc1 |  | > 80 |  |  | 1 |  |  |

More lines, now with the values ahead:

| EC50 [1] [nM] | Emax [2] [%] | EC50 [3] [nM] | Emax [4] [%] | EC50 ([1]; cho-k1) [nM] | EC50 ([3]; cho-k1) [nM] | Emax ([4]; filed as agonist) [%] | SMILES |
| --- | --- | --- | --- | --- | --- | --- | --- |
| ≥ 100 | 50 | ≥ 100 | 25 |  |  |  | C[C@H](NC(=O)Cn1nc2c(OC3CNC3)nccn2c1=O)c1ccc(Cl)c(F)c1 |
|  | > 80 |  |  | 1 | 1 | > 80 | C[C@H](NC(=O)Cn1nc2ncc(F)cn2c1=O)c1ccc(Cl)c(F)c1 |
|  | > 80 |  |  | 1 | 10 | 50 | C[C@H](NC(=O)Cn1nc2ncccn2c1=O)c1ccc(Cl)c(Cl)c1 |
| < 1 | > 80 |  |  |  | 1 | > 80 | C[C@H](NC(=O)Cn1nc2cccc(N3CCOCC3)n2c1=O)c1ccc(Cl)c(F)c1 |
|  | > 80 | < 1 |  | 1 |  | 50 | Cc1ccc([C@H](C)NC(=O)Cn2nc3c(Cl)cccn3c2=O)cc1 |
|  | > 80 | ≥ 100 | 25 | 10 |  |  | C[C@H](NC(=O)Cn1nc2ncccn2c1=O)c1ccc(Cl)cc1 |
| < 1 | > 80 | < 1 |  |  |  | 50 | C[C@H](NC(=O)Cn1nc2ccccn2c1=O)c1ccc(Cl)cc1 |
|  | > 80 |  |  | 1 | 1 | 50 | Cc1ccc([C@H](C)NC(=O)Cn2nc3cnc(C)cn3c2=O)cc1 |
|  | 50 |  |  | 10 | 10 | 50 | C[C@H](NC(=O)Cn1nc2cccnn2c1=O)c1ccc(C2CC2)cc1 |
|  | > 80 |  |  | 1 | 10 | 50 | C[C@H](NC(=O)Cn1nc2cccnn2c1=O)c1ccc(OC(F)(F)F)cc1 |
|  |  |  |  | 1 | 1 |  | Cc1ccc([C@H](C)NC(=O)C(C)n2nc3ccccn3c2=O)cc1 (stereo in doubt; form 1) [listing 2 of 2 here] |
|  | > 80 | ≥ 100 | 25 | 1 |  |  | C[C@H](NC(=O)Cn1nc2ncc(F)cn2c1=O)c1ccc(Cl)cc1 |
| < 1 | > 80 |  |  |  | 1 | > 80 | CC1COCCN1c1cccc2nn(CC(=O)N[C@@H](C)c3ccc(Cl)c(F)c3)c(=O)n12 (stereo not given in full) |
| < 1 | > 80 |  |  |  | 1 | 50 | Cc1cc(C)n2c(=O)n(CC(=O)N[C@@H](C)c3ccc(Cl)c(F)c3)nc2n1 |
|  | > 80 |  |  | 1 | 1 | 50 | COc1ccn2c(=O)n(CC(=O)N[C@@H](C)c3ccc(Cl)cc3)nc2n1 |
| < 1 | > 80 | < 1 |  |  |  | > 80 | C[C@H](NC(=O)Cn1nc2cc(I)ccn2c1=O)c1ccc(Cl)c(F)c1 |

| EC50 [1] [nM] | Emax [2] [%] | EC50 [3] [nM] | Emax [4] [%] | EC50 ([1]; cho-k1) [nM] | EC50 ([3]; cho-k1) [nM] | Emax ([4]; filed as agonist) [%] | SMILES |
| --- | --- | --- | --- | --- | --- | --- | --- |
| ≥ 100 | 50 | ≥ 100 |  |  |  | 50 | Cc1ccc([C@H](C)NC(=O)Cn2nc3c(C4CCNC4)cccn3c2=O)cc1 (stereo not given in full) |
| < 1 | > 80 | < 1 |  |  |  | > 80 | C[C@H](NC(=O)Cn1nc2c(N3CCCCC3)nccn2c1=O)c1ccc(Cl)c(F)c1 |
| < 1 | > 80 | < 1 |  |  |  | > 80 | C[C@H](NC(=O)Cn1nc2ccc(Cl)nn2c1=O)c1ccc(Cl)c(F)c1 |
|  | 50 |  |  | 1 |  |  | Cc1ccc([C@H](C)NC(=O)Cn2nc3c(NC(=O)OC(C)(C)C)cccn3c2=O)cc1 |
|  | > 80 |  |  | 1 | 1 | 50 | COc1ccn2c(=O)n(CC(=O)N[C@@H](C)c3ccc(C)cc3)nc2n1 |
|  | 50 | ≥ 100 | < 25 | 1 |  |  | Cc1ccnc2nn(CC(=O)N[C@@H](C)c3ccc(OC(F)(F)F)cc3)c(=O)n12 |
| < 1 | > 80 | < 1 |  |  |  | 50 | C[C@H](NC(=O)Cn1nc2cccc(N3CC(F)(F)C3)n2c1=O)c1ccc(Cl)c(F)c1 |
|  | > 80 |  |  | 1 |  |  | Cc1ccc([C@H](C)NC(=O)Cn2nc3cc(C)nc(C)n3c2=O)cc1 |
|  | > 80 |  |  | 1 | 1 | 50 | C[C@H](NC(=O)Cn1nc2ccccn2c1=O)c1ccc(OC(F)F)c(F)c1 |
|  | 50 | ≥ 100 | < 25 | 1 |  |  | Cc1cc(C)n2c(=O)n(CC(=O)N[C@@H](C)c3ccc(Cl)cc3)nc2n1 |
| ≥ 100 | 50 |  |  |  |  |  | C[C@@H](NC(=O)Cn1nc2ccccn2c1=O)c1ccc(OC(F)F)cc1 |
|  | > 80 | ≥ 100 | 25 | 10 |  |  | C[C@H](NC(=O)Cn1nc2cccc(N3CCNCC3)n2c1=O)c1ccc(OC(F)(F)F)cc1 |
| < 1 | > 80 |  |  |  | 1 | > 80 | C[C@H](NC(=O)Cn1nc2c(I)ccnn2c1=O)c1ccc(Cl)c(F)c1 |
|  | > 80 |  |  | 1 | 1 | > 80 | Cc1cnc2nn(CC(=O)N[C@@H](C)c3ccc(Cl)c(F)c3)c(=O)n2c1 |
| ≥ 100 | 50 |  |  |  |  |  | Cc1ccc([C@@H](C)NC(=O)Cn2nc3ccccn3c2=O)cc1 |
